Results from patent US10682372B2, “Intracellular ATP enhancer” (StaGen Co., Ltd., priority 2015, dated 2020).

Tests used:
[1] = system: model mouse of amyotrophic lateral sclerosis; conditions: model mouse of ALS; cited from earlier work
[2] = high-dose administration; cited from earlier work
[3] = Second administration test: serum uric acid value, single and combined administration; type: in vivo, Human
Method: (1) The subject of administration was the same as Test Example 1.
After a sufficient period had elapsed from completion of Test Example 1, febuxostat was administered again at 40 mg/day to the patient, and the serum uric acid value was measured three days later. Subsequently, febuxostat was discontinued and, after a while, administration of 2 g/day of inosine was started (administered at 1 g each after breakfast and dinner) and was followed by combined use of 2 g/day of inosine and 40 mg of febuxostat (administered at 20 mg each after breakfast and dinner). The serum uric acid value was measured at time points shown on the horizontal axis of FIG. 4.

[4] = Clinical test Phase II: serum uric acid value; type: in vivo, Human
Method: (§1) The following administration test was conducted for 16 Japanese healthy adult males, one subject in Phase I and 15 subjects which divided into Groups of A to E for each groups 3 subjects in phase II.
(§2) After the end of Phase I, administration was performed to three subjects of each of the groups as follows:
(§3) Group A: febuxostat 20 mg twice a day for 14 days;
(§4) Group B: inosine 500 mg twice a day for 14 days;
(§5) Group C: febuxostat 20 mg+inosine 500 mg twice a day for 14 days;
(§6) Group D: febuxostat 20 mg+inosine 1000 mg twice a day for 14 days; and
(§7) Group E: febuxostat 30 mg twice a day for 14 days.

[5] = Clinical test Phase II: urinary uric acid concentration/creatinine concentration; type: in vivo, Human; conditions: Week 0 to Week 2
Method: Since the urinary uric acid concentration varies with urine volume, a urinary uric acid amount was evaluated by using a urinary uric acid/creatinine value acquired by dividing by urinary creatinine concentration. The measurement method of the uric acid value was the same as Test Example 1.
as §1, §2, §3, §4, §5, §6, §7

[6] = Clinical test Phase II: blood purine concentration; type: in vivo, Human; conditions: for ATP concentration in blood, change: Week 0 to Week 2; for inosine concentration in blood, change: any groups (Groups A to E)
Method: Various purines in peripheral blood were measured according to Reference (1). Briefly, peripheral blood was collected with EDTA, mixed with 500 μL+500 μL ice cold 8% PCA, immediately vortexed for five seconds, and centrifuged at 12,000×g for 10 minutes at 4° C., and the supernatant was stored at −80° C. The sample was dissolve in a gathered state, and 40 μL of 2M K2CO3 in 6 M KOH was added to 650 μL of the solution to precipitate PCA and neutralize the solution at the same time. After this solution was centrifuged at 12,000×g for 10 minutes at 4° C., 160 μL of a mobile phase was added to 40 μL of supernatant and apply to HPLC. The conditions of HPLC were also set according to Reference (1) below. The amounts of purines are expressed in molar quantity contained in 1 L of whole blood.
as §1, §2, §3, §4, §5, §6, §7

[7] = Clinical test Phase II: urinary purine concentration; type: in vivo, Human
[8] = in vivo; cited from earlier work
[9] = in vivo; cited from earlier work; remark: listed apart in the source
erythrocytes = erythrocytes kept at low temperature for 20 to 30 days, one hour after addition of inosine; cited from earlier work
[10] = First administration test: serum uric acid value (uricase-peroxidase method); type: in vivo, Human
Method: For a clinical chemistry automatic analyzer, a dry clinical chemistry analysis measuring unit manufactured by ARKRAY, Inc. was used, and the serum uric acid value was measured by using the uricase-peroxidase method. A first clinical test was conducted by first administering febuxostat at 40 mg/day (single administration of febuxostat), after a while, additionally administering inosine (combined administration of febuxostat and inosine), and gradually increasing the dosage of inosine from 0.5 to 3 g/day. Meanwhile, blood was collected at the timing shown on the horizontal axis of FIG. 2 to measure the serum uric acid value.

[11] = Week 0 to Week 2, single administration of inosine
[12] = Group A febuxostat 40 mg/day alone
[13] = febuxostat 60 mg/day single administration
[14] = Week 0 to Week 2, single administration of febuxostat

What does the source list for `Oc1ncnc2[nH]ncc12` [allopurinol]?
disease progression of amyotrophic lateral sclerosis [1]: did not inhibit the disease progression; symptoms of chronic stable angina [2]: suppressed

What does the source list for `OC[C@H]1O[C@@H](n2cnc3c(O)ncnc32)[C@H](O)[C@@H]1O` [inosine]?
serum uric acid value ([3]; inosine 2 g/day (1 g after breakfast and dinner), six days later, 8.3 mg/dL before): 13.4 mg/dL; rise of serum uric acid value ([3]; inosine 2 g/day alone): 5.1 mg/dL; rise of serum uric acid value per 1 g/day administration of inosine ([3]; inosine alone): 2.55 mg/dL; serum uric acid value, highest observed ([4]; Group B: inosine 500 mg twice a day for 14 days): up to 8.1 mg/dL; rise of serum uric acid value on average ([4]; Group B: inosine 1 g per day, without febuxostat): 2.57 mg/dL; urinary uric acid/creatinine, change ([5]; Group B inosine alone): significantly increased; Hx (hypoxanthine) concentration in blood, change ([6]; Group B inosine 1 g/day alone): neither Hx nor X changed; X (xanthine) concentration in blood, change ([6]; Group B inosine 1 g/day alone): neither Hx nor X changed; ATP concentration in blood, change ([6]; Group B inosine 1 g/day): not changed; inosine concentration in blood, change [6]: no rise; maximum concentration of urinary X ([7]; Group B: inosine 500 mg twice a day): 61.9 µM; urinary Hx, change [7, 11]: no rise; urinary X, change [7, 11]: no rise; symptoms of Parkinson's disease [8]: alleviates symptoms; symptoms of multiple sclerosis [9]: alleviates symptoms; ATP in erythrocytes (erythrocytes): ATP increased

Which results are given for `Cc1nc(-c2ccc(OCC(C)C)c(C#N)c2)sc1C(=O)O` [febuxostat]?
serum uric acid value ([10]; febuxostat 40 mg/day single administration, 2014.07.12, 8.4 mg/dL before (2014.07.05)): 4.7 mg/dL; serum uric acid value ([10]; febuxostat 40 mg/day, 0 g inosine, 2014.08.23): 4.9 mg/dL; reduction of serum uric acid value ([10]; febuxostat 40 mg/day, previous (first) test): 3.7 mg/dL; suppression by febuxostat of the serum uric acid increasing action of inosine ([3]; febuxostat 40 mg/day, remaining share of the increase): 22.4%; reduction of serum uric acid value ([3]; three days from febuxostat 40 mg/day): 3.4 mg/dL; serum uric acid value ([3]; three days from febuxostat 40 mg/day (20150515), 8.2 mg/dL before (20150501)): 4.8 mg/dL; reduction of serum uric acid value ([4]; Group A: febuxostat 20 mg twice a day for 14 days): 2.53 mg/dL; reduction of serum uric acid value ([4]; Group E: febuxostat 30 mg twice a day for 14 days): 3.93 mg/dL; serum uric acid value, lowest observed ([4]; Group E: febuxostat 60 mg/day): less than 2 mg/dL; serum uric acid value, lower limit observed ([4]; any of the administration examples of 40 mg/day of febuxostat): ≥ 2 mg/dL; urinary uric acid/creatinine, change ([5]; febuxostat alone (Groups A and E)): reduced; Hx (hypoxanthine) concentration in blood, change [6, 12]: unchanged; X (xanthine) concentration in blood, change [6, 12]: significantly increased; ATP concentration in blood, change ([6]; Group A febuxostat 40 mg/day): not changed; ATP concentration in blood, change ([6]; Group E febuxostat 60 mg/day): No certain tendency was observed; inosine concentration in blood, change [6]: no rise; Hx (hypoxanthine) concentration in blood, change [6, 13]: slight rise; X (xanthine) concentration in blood, change [6, 13]: rise; maximum concentration of urinary X ([7]; Group A: febuxostat 20 mg twice a day): 556.0 µM; maximum concentration of urinary X ([7]; Group E: febuxostat 30 mg twice a day): 867.7 µM; urinary Hx, change [7, 14]: moderate rise; urinary X concentration, change [7, 14]: significantly increased; disease progression of amyotrophic lateral sclerosis [1]: inhibits disease progression
